Test results reported in the supplement of paper PMC12076712.
± gives the standard deviation of the averaged measurements.

Tests used:
Experiment in all cases: pIC50, competition of probe 3 labelling in live cells
Settings in all cases: cell material: Jurkat cells
UniProt Q15418 = target: UniProt Q15418
CAMKK2 = CAMKK2 (UniProt Q96RR4)
UniProt O43318 = target: T1, UniProt O43318
T1 sequence (whole entry): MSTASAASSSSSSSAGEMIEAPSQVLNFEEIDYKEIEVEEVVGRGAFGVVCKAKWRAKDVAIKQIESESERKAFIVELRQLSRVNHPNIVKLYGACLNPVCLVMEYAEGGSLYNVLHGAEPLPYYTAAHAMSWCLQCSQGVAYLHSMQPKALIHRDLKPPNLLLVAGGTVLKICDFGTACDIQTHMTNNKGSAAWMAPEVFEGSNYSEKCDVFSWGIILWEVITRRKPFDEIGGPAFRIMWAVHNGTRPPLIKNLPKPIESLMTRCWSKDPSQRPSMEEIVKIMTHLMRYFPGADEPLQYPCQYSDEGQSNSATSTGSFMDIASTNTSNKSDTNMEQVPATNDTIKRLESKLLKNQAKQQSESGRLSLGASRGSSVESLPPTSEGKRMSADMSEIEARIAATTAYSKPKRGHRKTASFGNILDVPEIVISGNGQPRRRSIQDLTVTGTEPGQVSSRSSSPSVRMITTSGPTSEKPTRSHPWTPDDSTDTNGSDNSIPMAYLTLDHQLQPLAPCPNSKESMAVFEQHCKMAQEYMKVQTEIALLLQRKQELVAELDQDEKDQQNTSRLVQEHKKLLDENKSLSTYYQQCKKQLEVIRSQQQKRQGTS

LYPLA1 = LYPLA1 (UniProt O75608)
Sequence of LYPLA1 (O75608 whole entry): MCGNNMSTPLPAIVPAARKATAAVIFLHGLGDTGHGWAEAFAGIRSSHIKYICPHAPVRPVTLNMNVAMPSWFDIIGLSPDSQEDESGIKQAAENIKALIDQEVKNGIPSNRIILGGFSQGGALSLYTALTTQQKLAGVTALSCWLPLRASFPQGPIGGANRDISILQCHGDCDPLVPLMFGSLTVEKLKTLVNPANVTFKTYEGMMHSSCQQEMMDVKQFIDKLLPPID

CASP6 = CASP6 (UniProt P55212)
FER = FER (UniProt P16591)
Sequence of FER (P16591 whole entry, looked up): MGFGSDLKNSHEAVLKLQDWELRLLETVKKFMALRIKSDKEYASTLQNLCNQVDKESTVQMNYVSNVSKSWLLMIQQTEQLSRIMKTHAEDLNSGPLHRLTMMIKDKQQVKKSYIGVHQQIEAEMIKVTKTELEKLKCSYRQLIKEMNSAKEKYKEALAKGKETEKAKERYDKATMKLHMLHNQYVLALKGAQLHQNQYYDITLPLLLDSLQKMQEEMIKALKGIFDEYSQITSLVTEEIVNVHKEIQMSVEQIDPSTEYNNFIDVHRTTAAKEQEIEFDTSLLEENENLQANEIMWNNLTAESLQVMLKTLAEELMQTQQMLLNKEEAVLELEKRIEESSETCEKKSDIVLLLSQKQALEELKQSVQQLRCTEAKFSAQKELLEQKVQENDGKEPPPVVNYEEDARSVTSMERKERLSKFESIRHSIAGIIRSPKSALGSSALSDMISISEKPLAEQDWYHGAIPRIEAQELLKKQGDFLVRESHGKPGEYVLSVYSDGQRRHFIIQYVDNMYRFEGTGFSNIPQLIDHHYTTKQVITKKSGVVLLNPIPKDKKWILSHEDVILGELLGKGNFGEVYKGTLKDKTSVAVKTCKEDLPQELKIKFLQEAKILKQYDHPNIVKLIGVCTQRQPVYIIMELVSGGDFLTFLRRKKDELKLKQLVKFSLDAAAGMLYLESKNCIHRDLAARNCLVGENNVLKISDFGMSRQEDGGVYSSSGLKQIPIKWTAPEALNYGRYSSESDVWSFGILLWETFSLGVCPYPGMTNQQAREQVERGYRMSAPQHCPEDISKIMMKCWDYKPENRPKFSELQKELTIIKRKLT

CLK3 = CLK3 (UniProt P49761)
Sequence of CLK3 (P49761 whole entry, looked up): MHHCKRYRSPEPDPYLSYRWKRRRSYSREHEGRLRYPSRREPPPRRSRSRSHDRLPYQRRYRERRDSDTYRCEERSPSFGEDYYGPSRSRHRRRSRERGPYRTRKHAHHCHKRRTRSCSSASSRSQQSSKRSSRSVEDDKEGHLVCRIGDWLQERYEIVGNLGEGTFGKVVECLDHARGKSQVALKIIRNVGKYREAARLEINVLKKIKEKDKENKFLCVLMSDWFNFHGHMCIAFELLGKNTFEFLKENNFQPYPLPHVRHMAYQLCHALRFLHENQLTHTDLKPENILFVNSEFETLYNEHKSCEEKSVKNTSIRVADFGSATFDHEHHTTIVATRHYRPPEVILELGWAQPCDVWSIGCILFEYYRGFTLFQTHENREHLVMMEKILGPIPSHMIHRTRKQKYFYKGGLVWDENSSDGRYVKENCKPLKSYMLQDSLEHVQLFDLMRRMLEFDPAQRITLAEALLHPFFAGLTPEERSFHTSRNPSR

UniProt P49841 = target: UniProt P49841
Sequence of UniProt P49841 (P49841 whole entry, looked up): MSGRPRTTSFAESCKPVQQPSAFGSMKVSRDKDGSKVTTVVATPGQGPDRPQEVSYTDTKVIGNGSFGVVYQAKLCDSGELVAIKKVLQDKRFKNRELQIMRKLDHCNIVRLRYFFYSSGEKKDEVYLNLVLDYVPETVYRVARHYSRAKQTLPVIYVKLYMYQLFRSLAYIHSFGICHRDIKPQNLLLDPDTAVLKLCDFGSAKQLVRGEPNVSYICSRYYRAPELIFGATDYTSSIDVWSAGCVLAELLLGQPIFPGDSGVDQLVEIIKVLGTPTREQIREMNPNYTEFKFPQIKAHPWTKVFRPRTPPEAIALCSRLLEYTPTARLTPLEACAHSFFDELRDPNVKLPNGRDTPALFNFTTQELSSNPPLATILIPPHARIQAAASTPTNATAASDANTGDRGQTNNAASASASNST

BLK = BLK (UniProt P51451)
UniProt Q9Y6E0 = target: UniProt Q9Y6E0
Sequence of UniProt Q9Y6E0 (Q9Y6E0 whole entry, looked up): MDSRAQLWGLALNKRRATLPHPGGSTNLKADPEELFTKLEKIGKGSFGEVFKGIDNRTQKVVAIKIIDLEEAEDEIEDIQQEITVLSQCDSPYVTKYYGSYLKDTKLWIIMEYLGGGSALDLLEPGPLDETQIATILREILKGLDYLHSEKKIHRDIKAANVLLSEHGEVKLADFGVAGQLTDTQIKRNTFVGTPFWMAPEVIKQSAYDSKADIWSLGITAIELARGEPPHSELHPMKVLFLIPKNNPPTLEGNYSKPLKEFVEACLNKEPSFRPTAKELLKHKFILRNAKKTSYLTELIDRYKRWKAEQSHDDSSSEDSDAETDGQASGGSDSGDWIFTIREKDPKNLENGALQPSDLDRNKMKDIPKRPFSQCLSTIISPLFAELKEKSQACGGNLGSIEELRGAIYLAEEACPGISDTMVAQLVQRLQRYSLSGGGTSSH

MAP4K2 = target: T2, MAP4K2 (UniProt Q12851)
T2 sequence (whole entry): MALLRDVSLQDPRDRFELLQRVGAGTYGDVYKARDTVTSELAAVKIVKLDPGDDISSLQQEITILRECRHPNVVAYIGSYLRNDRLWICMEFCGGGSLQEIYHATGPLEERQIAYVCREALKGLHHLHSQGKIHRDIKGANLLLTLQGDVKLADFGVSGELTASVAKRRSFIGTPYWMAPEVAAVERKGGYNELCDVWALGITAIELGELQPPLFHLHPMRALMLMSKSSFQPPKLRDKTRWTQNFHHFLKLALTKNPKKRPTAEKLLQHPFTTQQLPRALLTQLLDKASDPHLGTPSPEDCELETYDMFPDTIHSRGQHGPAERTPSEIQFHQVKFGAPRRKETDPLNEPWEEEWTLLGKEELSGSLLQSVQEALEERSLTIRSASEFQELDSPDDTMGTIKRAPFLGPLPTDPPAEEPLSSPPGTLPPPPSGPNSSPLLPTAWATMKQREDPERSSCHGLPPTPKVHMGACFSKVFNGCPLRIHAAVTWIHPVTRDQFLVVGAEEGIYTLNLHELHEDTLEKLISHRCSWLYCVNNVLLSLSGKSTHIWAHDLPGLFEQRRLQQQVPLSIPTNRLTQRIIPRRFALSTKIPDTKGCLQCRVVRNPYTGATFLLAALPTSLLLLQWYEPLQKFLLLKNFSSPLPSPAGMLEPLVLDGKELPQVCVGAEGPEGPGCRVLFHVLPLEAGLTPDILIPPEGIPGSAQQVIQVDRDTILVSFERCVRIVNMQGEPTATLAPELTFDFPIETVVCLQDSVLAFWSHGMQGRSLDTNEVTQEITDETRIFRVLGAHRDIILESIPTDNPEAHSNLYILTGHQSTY

LIMK1 = LIMK1 (UniProt P53667)
Sequence of LIMK1 (P53667 whole entry, looked up): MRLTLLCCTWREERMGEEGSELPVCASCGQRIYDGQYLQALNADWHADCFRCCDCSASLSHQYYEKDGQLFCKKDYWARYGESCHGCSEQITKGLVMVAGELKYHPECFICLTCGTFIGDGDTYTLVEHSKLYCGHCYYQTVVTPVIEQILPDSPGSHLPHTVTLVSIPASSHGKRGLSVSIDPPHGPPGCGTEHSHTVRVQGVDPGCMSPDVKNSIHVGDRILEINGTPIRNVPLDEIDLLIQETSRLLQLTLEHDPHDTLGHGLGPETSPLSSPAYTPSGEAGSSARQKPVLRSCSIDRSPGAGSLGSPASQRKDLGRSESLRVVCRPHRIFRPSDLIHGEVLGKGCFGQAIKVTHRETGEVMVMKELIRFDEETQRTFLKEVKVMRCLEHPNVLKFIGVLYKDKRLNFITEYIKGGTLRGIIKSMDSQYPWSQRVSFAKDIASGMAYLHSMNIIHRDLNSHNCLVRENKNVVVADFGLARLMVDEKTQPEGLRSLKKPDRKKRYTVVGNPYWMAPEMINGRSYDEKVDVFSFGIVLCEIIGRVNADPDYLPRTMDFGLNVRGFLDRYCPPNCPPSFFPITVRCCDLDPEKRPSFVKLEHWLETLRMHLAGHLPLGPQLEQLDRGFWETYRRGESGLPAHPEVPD

UniProt P49840 = target: UniProt P49840
Sequence of UniProt P49840 (P49840 whole entry, looked up): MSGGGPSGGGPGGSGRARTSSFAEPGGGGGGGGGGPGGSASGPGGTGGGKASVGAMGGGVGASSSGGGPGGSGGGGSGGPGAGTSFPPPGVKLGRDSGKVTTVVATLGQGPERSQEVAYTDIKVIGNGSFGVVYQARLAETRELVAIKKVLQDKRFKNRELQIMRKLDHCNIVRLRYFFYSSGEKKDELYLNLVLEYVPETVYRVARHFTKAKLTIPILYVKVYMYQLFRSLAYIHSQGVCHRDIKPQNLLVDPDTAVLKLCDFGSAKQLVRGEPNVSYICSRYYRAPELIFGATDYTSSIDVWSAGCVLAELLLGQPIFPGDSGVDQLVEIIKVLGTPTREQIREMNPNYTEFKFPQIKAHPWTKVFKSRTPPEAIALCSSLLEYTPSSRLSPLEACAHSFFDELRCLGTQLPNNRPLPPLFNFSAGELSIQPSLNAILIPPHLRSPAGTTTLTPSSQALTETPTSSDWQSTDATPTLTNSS

MASTL = target: T3, MASTL (UniProt Q96GX5)
T3 sequence (whole entry): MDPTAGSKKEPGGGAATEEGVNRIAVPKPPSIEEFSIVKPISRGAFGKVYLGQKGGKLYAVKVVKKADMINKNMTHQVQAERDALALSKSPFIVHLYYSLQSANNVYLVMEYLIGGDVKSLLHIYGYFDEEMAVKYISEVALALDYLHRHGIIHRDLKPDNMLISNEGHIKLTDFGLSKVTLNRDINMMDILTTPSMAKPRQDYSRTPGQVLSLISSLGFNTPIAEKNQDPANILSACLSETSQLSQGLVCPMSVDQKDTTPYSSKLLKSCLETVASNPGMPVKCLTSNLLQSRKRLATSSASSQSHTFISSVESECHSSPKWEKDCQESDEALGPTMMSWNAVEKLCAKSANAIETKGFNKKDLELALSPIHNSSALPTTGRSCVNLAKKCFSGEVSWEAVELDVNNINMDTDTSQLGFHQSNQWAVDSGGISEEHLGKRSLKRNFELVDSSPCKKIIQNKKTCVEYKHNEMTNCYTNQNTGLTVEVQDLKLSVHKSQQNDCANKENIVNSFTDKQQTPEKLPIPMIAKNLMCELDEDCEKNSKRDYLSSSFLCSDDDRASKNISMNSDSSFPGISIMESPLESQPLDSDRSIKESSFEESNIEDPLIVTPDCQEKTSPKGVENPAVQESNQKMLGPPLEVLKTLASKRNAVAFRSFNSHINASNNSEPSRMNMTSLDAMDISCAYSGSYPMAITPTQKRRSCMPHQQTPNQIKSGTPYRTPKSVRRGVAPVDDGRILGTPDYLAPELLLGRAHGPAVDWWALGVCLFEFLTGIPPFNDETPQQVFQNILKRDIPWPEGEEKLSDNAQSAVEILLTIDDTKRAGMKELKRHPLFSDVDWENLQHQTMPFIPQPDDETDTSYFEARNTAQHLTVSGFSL

Sequence of UniProt Q15418 (Q15418 whole entry): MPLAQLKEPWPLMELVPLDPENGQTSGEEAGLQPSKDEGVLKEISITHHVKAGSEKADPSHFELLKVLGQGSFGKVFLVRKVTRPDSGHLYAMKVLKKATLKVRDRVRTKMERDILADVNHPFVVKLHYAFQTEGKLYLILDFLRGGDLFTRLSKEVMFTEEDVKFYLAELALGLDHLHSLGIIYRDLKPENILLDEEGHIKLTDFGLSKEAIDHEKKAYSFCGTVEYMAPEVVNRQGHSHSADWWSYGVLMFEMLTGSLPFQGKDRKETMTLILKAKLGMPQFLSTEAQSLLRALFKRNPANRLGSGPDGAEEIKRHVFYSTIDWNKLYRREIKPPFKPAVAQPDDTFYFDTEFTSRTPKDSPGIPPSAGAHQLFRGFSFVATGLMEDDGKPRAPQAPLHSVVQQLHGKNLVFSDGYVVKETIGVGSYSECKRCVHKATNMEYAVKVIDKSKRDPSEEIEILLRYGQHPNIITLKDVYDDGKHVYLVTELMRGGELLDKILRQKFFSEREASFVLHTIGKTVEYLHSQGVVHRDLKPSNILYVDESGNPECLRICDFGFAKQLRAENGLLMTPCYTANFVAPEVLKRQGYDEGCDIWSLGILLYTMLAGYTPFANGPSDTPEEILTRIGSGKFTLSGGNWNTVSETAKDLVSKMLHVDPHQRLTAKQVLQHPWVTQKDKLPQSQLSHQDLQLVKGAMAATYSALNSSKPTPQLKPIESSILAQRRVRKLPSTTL
Sequence of CAMKK2 (Q96RR4 whole entry, looked up): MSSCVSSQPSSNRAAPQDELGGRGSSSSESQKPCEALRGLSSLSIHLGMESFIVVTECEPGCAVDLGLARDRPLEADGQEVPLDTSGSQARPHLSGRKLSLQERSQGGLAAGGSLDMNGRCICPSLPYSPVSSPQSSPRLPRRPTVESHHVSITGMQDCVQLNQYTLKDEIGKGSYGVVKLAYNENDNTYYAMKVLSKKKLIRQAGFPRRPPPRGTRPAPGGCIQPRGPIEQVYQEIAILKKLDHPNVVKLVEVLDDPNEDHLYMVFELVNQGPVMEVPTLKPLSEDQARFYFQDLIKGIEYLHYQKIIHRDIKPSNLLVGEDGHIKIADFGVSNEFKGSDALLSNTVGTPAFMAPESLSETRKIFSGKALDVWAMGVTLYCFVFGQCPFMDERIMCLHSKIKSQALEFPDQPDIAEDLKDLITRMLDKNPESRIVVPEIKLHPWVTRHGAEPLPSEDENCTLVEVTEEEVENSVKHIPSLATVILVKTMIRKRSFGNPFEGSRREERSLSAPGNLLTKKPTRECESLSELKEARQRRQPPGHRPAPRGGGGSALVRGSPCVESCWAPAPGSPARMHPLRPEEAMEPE

pIC50 (UniProt Q15418)	pIC50 (CAMKK2)	pIC50 (UniProt O43318)	pIC50 (LYPLA1)	pIC50 (CASP6)	pIC50 (FER)	pIC50 (CLK3)	pIC50 (UniProt P49841)	pIC50 (BLK)	pIC50 (UniProt Q9Y6E0)	pIC50 (MAP4K2)	pIC50 (LIMK1)	pIC50 (UniProt P49840)	pIC50 (MASTL)	Compound
< 4.52	< 4.52	< 4.52	< 4.52	< 4.52	< 4.52	< 4.52	4.85 ± 0.27	< 4.52	< 4.52					CCc1cnn2c(NCc3ccc[n+]([O-])c3)cc(N3CCCC[C@H]3CCO)nc12 [dinaciclib]
										< 4.52	< 4.52	< 4.52	< 4.52	CC#CC(=O)Nc1ccc2ncnc(Nc3cccc(Br)c3)c2c1 [EKI-785]
